Read-outs that look alike come from different tables or passages of the source.
How the values were obtained:
Assay type in all cases: cell-based
[1] = system: RKO cells, sensitive strain; test: Viability of sensitive strain with encorafenib and ATRA; settings: for IC50: Homo sapiens, RKO, Sensitive Strain, read-out: IC50 (50% inhibition concentration)
[2] = system: RKO cells, encorafenib/cetuximab resistant strain; test: Viability of encorafenib/cetuximab resistant strain with encorafenib and ATRA; settings: for IC50: Homo sapiens, RKO, Resistant Strain, read-out: IC50 (50% inhibition concentration)
Protocol: Encorafenib/cetuximab resistant strains were constructed, and the inhibitor enhancing effect of ATRA was examined for the resistant strains.
For the construction of the resistant strains, the above-described RKO cells were seeded in 15 mm dishes and a group in which the BRAF inhibitor Encorafenib and an anti-EGFR antibody Cetuximab were administered and a group in which the BRAF inhibitor Encorafenib, the MEK inhibitor Binimetinib, and the anti-EGFR antibody Cetuximab were administered were prepared.
The vertical axis represents the viability (ratio), and the horizontal axis represents the administration amount of encorafenib.

[3] = system: CO115 (BRAF V600E-mutated colorectal cancer cell line); test: MTT assay, encorafenib + binimetinib with retinoid
Protocol: (§1) RKO cells were seeded on a 96-well plate with the number of cells of 1.5×10^3 cells/well, CO115 cells were seeded on a 96-well plate with the number of cells of 2.5×10^3 cells/well, and HT29 cells and WiDR cells were respectively seeded on 96-well plates with the number of cells of 6×10^3 cells/well. After incubation for about 24 hours until the cell density reached 40% to 60%, the drug was administered. After incubation at 37° C. for 72 hours, the MTT assay was performed using Cell Counting Kit-8 (Dojindo Laboratories, Kumamoto, Japan). To each well was added 10 μl of Cell Counting Kit-8 solution, the plates were placed in a culture vessel at 5% CO2 and 37° C. for 120 minutes to perform a color reaction, and then the absorbance at 450 nm was measured and evaluated with a microplate reader SpectraMax M2e (Molecular Devices, Sunnyvale, CA, USA). Cells administered with 0.1% DMSO were used as a control. The above was performed three or more times as independent experiments.
(§2) In various kinds of colorectal cancer cell lines, the inhibition effect of a BRAF inhibitor (encorafenib) and an MEK inhibitor (binimetinib) for the viability of cells and the enhancement by ATRA were examined. […] The horizontal axis indicates component concentrations of encorafenib and binimetinib in a range of 0 μM to 10 μM, and the vertical axis indicates the cell viability when 0 μM, 1.0 μM, or 10 μM (each bar graph) of ATRA was administered. As shown in the drawing, encorafenib and binimetinib were used in an equal molar concentration.
(§3) As the compounds for acting and on a retinoid receptor, retinol, tamibarotene, bexarotene among the retinoids were used. As the cell lines, the above-described cell lines including RKO, HT29, and CO115 were used. As the BRAF inhibitor and the MEK inhibitor to be used in combination, a component (EB) obtained by mixing encorafenib and binimetinib in equal amounts was used as in Test Example 2.
(§4) As the compounds for acting on a retinoid receptor, retinol, tamibarotene, and bexarotene among the retinoids were used. As the cell lines, the colorectal cancer cell lines including RKO, HT29, CO115, WiDR, COLO205, and LIM2405 described above were used. As the BRAF inhibitor and the MEK inhibitor to be used in combination, a component (EB) obtained by mixing encorafenib and binimetinib in equal amounts was used as in Test Example 2.

[4] = system: RKO (BRAF V600E-mutated colorectal cancer cell line); test: MTT assay, encorafenib + binimetinib with retinoid
Protocol: as §1, §2, §3, §4

[5] = system: HT29 (BRAF V600E-mutated colorectal cancer cell line); test: MTT assay, encorafenib + binimetinib with retinoid
Protocol: as §1, §2, §3, §4

[6] = system: WiDR (BRAF V600E-mutated colorectal cancer cell line); test: MTT assay, encorafenib + binimetinib with retinoid; settings: Test Example 6; concentration-dependent
Protocol: as §1, §2, §4

LIM2405 cell line = test: MTT assay, encorafenib + binimetinib with retinoid; settings: Test Example 6; concentration-dependent
Protocol: as §1, §4

COLO205 cell line = test: MTT assay, encorafenib + binimetinib with retinoid; settings: Test Example 6; concentration-dependent
Protocol: as §1, §4

[7] = Test Example 6, concentration-dependent, smaller concentrations than Test Example 3
[8] = Test Example 3, EB 0.1 μM, retinol 30 μM, tamibarotene 10 μM or bexarotene 10 μM
[9] = Test Example 3, EB 0.01 μM, retinol, tamibarotene or bexarotene 1 μM
[10] = Test Example 3, EB 0.1 μM, retinol 30 μM or tamibarotene 30 μM

Structure (SMILES) | IC50 ([1]; ATRA 0 μM) | IC50 ([1]; ATRA 1 μM) | viability (ratio) ([1]; sensitive strain (S), ATRA 1 μM, encorafenib 0 to 10 μM) | viability (ratio) ([1]; sensitive strain, ATRA not administered) | IC50 ([2]; ATRA 0 μM) | IC50 ([2]; ATRA 1 μM) | viability (ratio) ([2]; resistant strain (R), ATRA 1 μM) | cell viability on further adding a retinoid to EB [3, 7] | cell viability on further adding a retinoid to EB [4, 8] | cell viability on further adding a retinoid to EB [4, 7] | cell viability on further adding a retinoid to EB [5, 9] | cell viability on further adding a retinoid to EB [5, 7] | cell viability on further adding a retinoid to EB [6] | cell viability on further adding a retinoid to EB (LIM2405 cell line) | cell viability on further adding a retinoid to EB (COLO205 cell line) | cell viability on further adding a retinoid to EB [3, 10]
COC(=O)N[C@@H](C)CNc1nccc(-c2cn(C(C)C)nc2-c2cc(Cl)cc(NS(C)(=O)=O)c2F)n1 [encorafenib] | 1230 nM | 4.6 nM | around 0.1 | around 0.3 | > 10000 nM | 1580 nM | around 0.3 |  |  |  |  |  |  |  |  | 
C=C(c1ccc(C(=O)O)cc1)c1cc2c(cc1C)C(C)(C)CCC2(C)C [bexarotene] |  |  |  |  |  |  |  | greatly decreased | greatly reduced | greatly decreased | greatly reduced | greatly decreased | greatly decreased | greatly decreased | greatly decreased | 
CC1=C(/C=C/C(C)=C/C=C/C(C)=C/CO)C(C)(C)CCC1 [retinol] |  |  |  |  |  |  |  | greatly decreased | greatly reduced | greatly decreased | greatly reduced | greatly decreased | greatly decreased | greatly decreased | greatly decreased | greatly reduced
CC1(C)CCC(C)(C)c2cc(NC(=O)c3ccc(C(=O)O)cc3)ccc21 [tamibarotene] |  |  |  |  |  |  |  | greatly decreased | greatly reduced | greatly decreased | greatly reduced | greatly decreased | greatly decreased | greatly decreased | greatly decreased | greatly reduced

Reference: patent publication US20250108051A1, “THERAPEUTIC AGENT FOR CANCER” (TOHOKU UNIVERSITY, priority 2022, published 2025)
